Earlier results in patent US20230225968A1, “PROCESS FOR PRODUCING VISIBLY CLEAR AQUEOUS CONSUMABLE PRODUCTS” (CHAVAN, Neha, priority 2020, published 2023).

Conditions: oil-based delivery systems; humans

C=C(C)[C@@H]1CCC(C)=C[C@H]1c1c(O)cc(CCCCC)cc1O [CBD, cannabidiol]
total CBD absorbed: 4%
